In patent publication US12453731B2, “Aniline-based WDR5 protein-protein interaction inhibitor, and preparation method and use thereof” (CHINA PHARMACEUTICAL UNIVERSITY, priority 2019, dated 2025):

Assays:
[1] = test system: methylation level of H3K4; assay: inhibition of the methylation level of H3K4 (methyltransferase activity); type: biochemical
[2] = test system: Molm-13 human acute myeloid leukemia cells; assay: anti-proliferative activity against leukemia cells Molm-13; type: cell-based; conditions: Homo sapiens, MOLM-13, Molm-13 cells
Source text: (§1) Some compounds of the present disclosure have also been tested for the antiproliferative activity against leukemia cells.

[3] = test system: MV4-11 human acute mononuclear leukemia cells; assay: anti-proliferative activity against leukemia cells MV4-11; type: cell-based; conditions: Homo sapiens, MV4-11, MV4-11 cells; read-out: GI50 (MV-411)
Source text: as §1

MLL1-WDR5 PPI = MLL1-WDR5 PPI (Homo sapiens (Human), UniProt P61964); assay: fluorescent probe assay of MLL1-WDR5 protein-protein interaction inhibition; type: binding; conditions: fluorescent probe based on MLL1 peptide, incubation 0.5 hrs, read-out: MLL1-WDR5 PPI inhibiting activity IC50
Description: In the present disclosure, a fluorescent molecular probe was constructed based on a MLL1 peptide fragment binding to WDR5, for use as a method for study on an aniline compound interfering with WDR5 protein-protein interaction, to determine an inhibition rate of the aniline compound at various concentrations, and then compute the IC50 value. Specific experimental steps: 20 μL of WDR5 protein, 20 μL of a fluorescent probe, and 20 μL of a compound of different concentration gradients were added to a 384-well plate respectively. After incubation for 0.5 hrs, the fluorescence was read on a multifunctional microplate reader at an excitation wavelength of 485 nm and an emission wavelength of 535 nm, to compute the mP value. The inhibition rate was computed as per the formula below, and then the IC50 value was computed using GraphPad software.

MV4-11 tumor = assay: MV4-11 nude mouse xenograft tumor model; type: in vivo; conditions: MV4-11 xenograft in nude mice, oral administration, FIG. 3
Source text: In addition, some of the compounds of the present disclosure have also been tested for the anti-tumor activity at the animal level. A nude mice xenograft tumor model of leukemia cells MV4-11 was selected for oral administration.

Hox and Meis-1 genes = assay: RT-PCR, expression of downstream Hox and Meis-1 genes at the cellular level; type: cell-based; conditions: FIG. 2
Source text: Furthermore, some of the compounds of the present disclosure have also been subjected to a RT-PCR experiment at the cellular level. The results of the inhibitory effect of some compounds on the expression levels of downstream Hox and Meis-1 genes at the cellular level are shown in FIG. 2.

[4] = test system: MLL1 (H3K4me1/2/3 expression level); assay: Western blot, methyltransferase function of MLL1 at the cellular level; type: cell-based; conditions: FIG. 1
Source text: Moreover, some compounds have also been tested by Western-blot.

Whether the methylation level of H3K4 was inhibited [1] | GI50 [2] | GI50 [3] | IC50 (MLL1-WDR5 PPI) | Structure (SMILES) | inhibition of tumor growth (MV4-11 tumor) | expression levels of Hox and Meis-1 genes (Hox and Meis-1 genes) | inhibition of catalytic activity of MLL1, expression level of H3K4me1/2/3 [4]
Yes | 16.5 µM | 19.6 µM | 36 nM | CN1CCN(c2cc(F)c(-c3ccc(C(=O)N4CCOCC4)cc3)cc2Nc2ncnc(Cl)c2N)CC1 [Example 67, (5″-((5-amino-6-chloropyrimidin-4-yl)amino)-2′-fluoro-4″-(4-methylpiperazin-1-yl)-[1,1′-biphenyl]-4-yl)(morpholino)methanone] | – | – | –
Yes | 23.1 µM | 27.7 µM | 74 nM | CN1CCN(c2cc(F)c(-c3ccc(C(=O)NCCN4CCOCC4)cc3)cc2Nc2ncnc(Cl)c2N)CC1 [Example 68] | – | – | –
Yes | 17.3 µM | 25.6 µM | 21 nM | CN1CCN(c2cc(F)c(-c3ccc(C(=O)NCCCN4CCOCC4)cc3)cc2Nc2ncnc(Cl)c2N)CC1 [Example 69] | – | – | –
Yes | 13.2 µM | 20.2 µM | 33 nM | CN1CCN(c2cc(F)c(-c3ccc(C(=O)N4CCC(O)CC4)cc3)cc2Nc2ncnc(Cl)c2N)CC1 [Example 70] | – | – | –
Yes | 12.3 µM | 15.7 µM | 36 nM | CN1CCN(c2cc(F)c(-c3ccc(C(=O)NCC4CCOCC4)cc3)cc2Nc2ncnc(Cl)c2N)CC1 [Example 71, 5″-((5-amino-6-chloropyrimidin-4-yl)amino)-2′-fluoro-4″-(4-methylpiperazin-1-yl)-N-((tetrahydro-2H-pyran-4-yl)methyl)-[1,1′-biphenylyl]-4-carboxamide] | – | – | –

The remaining lines, values behind:

Structure (SMILES) | Whether the methylation level of H3K4 was inhibited [1] | GI50 [2] | GI50 [3] | IC50 (MLL1-WDR5 PPI) | inhibition of tumor growth (MV4-11 tumor) | expression levels of Hox and Meis-1 genes (Hox and Meis-1 genes) | inhibition of catalytic activity of MLL1, expression level of H3K4me1/2/3 [4]
CN1CCC(C(=O)Nc2ccc(-c3ccc(N4CCN(C)CC4)c(Nc4ncnc(Cl)c4N)c3F)cc2)CC1 [Example 60, N-(3″-((5-amino-6-chloropyrimidin-4-yl)amino)-2′-fluoro-4″-(4-methylpiperazin-1-yl)-[1,1′-biphenyl]-pyridin-4-yl)-1-methylpiperidin-4-carboxamide] | Yes | 22.6 µM | 22.7 µM | 105 nM | – | – | –
CN1CCN(c2ccc(-c3ccc(NC(=O)CC4CCOCC4)cc3)c(F)c2Nc2ncnc(Cl)c2N)CC1 [Example 61] | Yes | 20.5 µM | 21.1 µM | 85 nM | – | – | –
CC(C)C(N)C(=O)Nc1ccc(-c2ccc(N3CCN(C)CC3)c(Nc3ncnc(Cl)c3N)c2F)cc1 (stereo not shown) [Example 62, 2-amino-N-(3″-((5-amino-6-chloropyrimidin-4-yl)amino)-2′-fluoro-4″-(4-methylpiperazin-1-yl)-[1,1′biphenylyl]-4-yl)-3-methylbutyramide] | Yes | 22 µM | 17.4 µM | 34 nM | – | – | –
CN1CCN(c2ccc(-c3ccc(NC(=O)CN)cc3)c(F)c2Nc2ncnc(Cl)c2N)CC1 [Example 64, 2-amino-N-(3″-((5-amino-6-chloropyrimidin-4-yl)amino)-2′-fluoro-4″-(4-methylpiperazin-1-yl)-[1,1′biphenylyl]-4-yl)acetamide] | Yes | 28.6 µM | 20.4 µM | 33 nM | – | – | –
CN1CCN(c2cc(F)c(-c3ccc(C(=O)N(C)C)cc3)cc2Nc2ncnc(Cl)c2N)CC1 [Example 72, 5″-((5-amino-6-chloropyrimidin-4-yl)amino)-2′-fluoro-N,N-dimethyl-4″-(4-methylpiperazin-1-yl)-[1,1′-biphenyl]-4-carboxamide] | Yes | 13.1 µM | 12.6 µM | 29 nM | inhibit the tumor growth dose-dependently | down-regulate the expression levels of Hox and Meis-1 genes dose-dependently | inhibit the catalytic activity of MLL1 dose-dependently
